Read-outs that look alike come from different tables or passages of the source.
Tests used:
[1] = format: in vitro ADME; settings: dog intestinal homogenate, 37° C., 20 μg/mL
Procedure: Dog intestinal segments (jejunum/ileum) were obtained fresh from Pharmakon USA (Waverly, Pa.) and intestinal homogenate was prepared as described for liver. The intestinal homogenates were stored as 1.0 mL aliquots at −70° C.
(§1) Enzymatic stability studies involving plasma and intestinal homogenate were performed with 90% biological fluids.
(§2) One blank (drug free) incubation was performed for each biological fluid. All biological fluid tubes (open) were pre-incubated without PMPA prodrugs in a shaker bath at 37° C. and 100 oscillation/min for 5 minutes. PMPA prodrugs was added to the test incubations (final concentration: 20 μg/mL, mixed and maintained at 37° C. and 100 oscillations/min. Samples (50 μL) were withdrawn at 0, 30, and 60 minutes and the reaction was quenched with 100 μL of 0.1% trifluoroacetic acid (TFA) in acetonitrile. Quenched samples were centrifuged for 5 minutes at 14,000 rpm in an Eppendorf Centrifuge 5402, and the supernatant was used for HPLC analysis.
(§3) For each incubation, the observed rate constant for degradation was calculated by plotting the log of the peak area of PMPA prodrugs versus time of incubation (min). The slope was the observed rate constant (kobs). The half life was calculated according to the following equation: [formula]
(§4) If the observed rate constant for degradation was less than 0.01 min^−1, then t½ was expressed as stable.

[2] = format: in vitro ADME; settings: 37° C., 20 μg/mL
Procedure: as §1, §2, §3, §4

[3] = Enzymatic stability in dog liver homogenate (S9); format: in vitro ADME; settings: 37° C., 20 μg/mL
Procedure: Dog liver was obtained fresh from Pharmakon USA (Waverly, Pa.). Liver homogenate was prepared following a standard protocol. Dog liver was rinsed three times with ice-code 50 mM sodium/potassium phosphate buffer and homogenized with a Tekmar Tissumizer homogenizer (VWR 33995-060). The homogenate was centrifuged at 9000 g (11,000 rpm for Eppendorf Centrifuge 5402; Brinkman Instruments, Westbury, N.Y.) at 4° C. for 20 minutes. The supernatant was designated at the S9 fraction. The concentration of protein in the S9 fraction was determined using a Bio-Rad Protein Assay Kit II, with bovine serum albumin as standard. Esterase activity was determined using o-nitrophenyl butyreate as substrate and activity was calculated based on the increase in absorbance at 420 nm after a 1 min incubation. The homogenates were stored as 1.0 mL aliquots at −70° C.
as §2, §3, §4

[4] = Partition coefficient (Log PC); format: physicochemical
[5] = Enzymatic stability in human intestinal homogenate (S9); format: in vitro ADME; settings: human intestinal homogenate (values in parentheses), 37° C., 20 μg/mL
Procedure: Human intestinal homogenate (S9) was obtained from Keystone Skin Bank (Exton, Pa.) at concentration of 20 mg protein/mL.
as §1, §2, §3, §4

[6] = Oral bioavailability of PMPA and PMPA carbonates in beagle dogs; format: in vivo; settings: for % of PMPA IV (1 mg/kg) AUC: PMPA: 6.2-10 mg eq of PMPA/kg, PMPA in plasma; for % of PMPA IV (1 mg/kg) AUC: Prodrug: intact prodrug in plasma; for % of PMPA IV (1 mg/kg) AUC: Monoester: monoester in plasma; for % of PMPA IV (1 mg/kg) AUC: other: other species in plasma
Procedure: PMPA (9-[(R)-2-(phosphonomethoxy)propyl]adenine) and PMPA carbonates were examined to determine the effect of dose on the pharmacokinetics of PMPA in beagle dogs, in particular the bioavailability of PMPA following oral administration to beagle dogs.
The intravenous formulations used as standards were isotonic aqueous solutions containing 50 mg/mL PMPA. Compound was added to 10 mL of WFI (water for injection from Abbott Laboratory) and 1N NaOH was added to adjust the pH to 7.4. The solutions were diluted to 15 mL with WFI and sterile filtered with a 0.2 μm filter. The PMPA dose was 10 mg/kg (0.2 mL/kg).
The intravenous formulation for a 1 mg/kg dose was prepared as described above except only 75 mg of PMPA was added to WFI and the final concentration was 5 mg/mL. The dose was 1 mg/kg (0.2 mL/kg). Oral formulations of carbonates were prepared in 20-40% PEG 400/50 mM citric acid and were adjusted to pH 2.2.
Two groups of five adult male beagle dogs were used. The mean body weight at the time of the first does was 9.6±0.4 Kg (range 9.2-10.2). The dogs were fasted 12-18 hours prior to dosing and until 6 hours post-dose. For pentagastrin pretreatment, dogs were given a single intramuscular injection of pentagastrin (Peptavlon 0.25 mg/mL, Ayerst Laboratories, Inc., Philadelphia, Pa.) at a dose of 6 μg/kg, 20 minutes prior to dosing. Water was provided ad lib.
Each formulation was administered as a single dose to five male beagle dogs. Individual vials of each formulation were provided for each animal. The intravenous formulation was administrated via a cephalic vein. The oral suspension was administered by gavage, followed by two 10 mL water washes. At least one week washout period was allowed between administrations.
Blood samples (4.0 mL) were collected by direct jugular access from each animal into heparinized tubes. Animals remained conscious throughout the sample collection period. Blood was processed immediately for plasma by centrifugation at 2000 rpm for 10 minutes. Plasma samples were frozen and maintained at ≦−20° C. until analyzed.
Urine samples were collected over 0-24 and 24-48 hours time periods. Urine samples from 0-24 and 24-48 hours were divided into aliquots and mixed based on the volume collected and analyzed to determine amount of PMPA recovered from urine during 0-48 hours.
PMPA in Plasma and Urine was determined as follows. PMEA (9-(2-phosphono-methoxyethyl)adenine; adefovir) was used as the internal standard for both analyses. The total concentration of PMPA in dog plasma or urine samples was determined by derivatizing PMPA and PMEA with chloroacetaldehyde to yield a highly fluorescent N^1,N^6-ethenoadenine derivative as described (Russell, J. et al. (1991) Determination of 9-[(2-Phosophonylmethoxy)-ethyl]Adenine in Rat Urine by High-Performance Liquid Chromatography with Fluorescence Detection. J. Chromatogr. (Netherlands) 572, 321-326).
Sample Extraction for PMPA in plasma and urine was performed as follows. Plasma (200 μL) and internal standard ([…]) were mixed with 400 μL of acetonitrile containing 0.1% TFA to precipitate protein. Samples were then evaporated to dryness under reduced pressure at room temperature (Savant SpeedVac). Urine samples (20 μL) and internal standard (30 μL of 10 μg/mL PMEA providing a final PMEA concentration of 1.5 μg/mL) were used directly for derivatization without drying.
The samples were derivatized for analysis as follows. Dried plasma samples or urine samples were reconstituted or mixed in 200 μL derivatization cocktail (0.34% chloroacetaldehyde in 100 mM sodium acetate, pH 4.5), vortexed, and centrifuged for 10 minutes at 14,000 rpm in an Eppendorf Centrifuge 5402. Supernatant was then transferred to a clean screw capped tube and incubated at 95° C. for 40 minutes. Derivatized samples were quenched on ice and evaporated to dryness under reduced pressure at room temperature. […]

HIV-1 (IIIB) = assay: microbe, parasite or virus in culture; format: cell-based; settings: MT-2 cells; for IC50: read-out: IC50 (50% inhibitory concentration)
Source text: PMPA (9-[(R)-2-(phosphonomethoxy)propyl]adenine) and PMPA carbonates were examined to determine their activity against HIV-1.

[7] = Cytotoxicity in MT-2 cells; format: cell-based; settings: human
Procedure: (§5) PMPA (9-[(R)-2-(phosphonomethoxy)propyl]adenine) and PMPA carbonates were examined to determine their activity against HIV-1. The antiviral activity of the carbonates 5a, 5c-g against HIV-1 (IIIB) was determined in MT-2 cells and the IC50 (50% inhibitory concentration) and CC50 (concentration to kill 50% of the cells) values were measured. […] The increased activity can be attributed to increased cellular uptake of the prodrugs followed by effective intracellular conversion to PMPA, which undergoes subsequent phosphorylation to the antivirally active diphosphate metabolite. […] The partition coefficient values support this hypothesis, with all prodrugs being more lipophilic (logP=0.6-3.2) compared to PMPA (logP=−2.5). [drawing 32]

MT-2 cells = assay: Cytotoxicity in MT-2 cells; format: cell-based; settings: MT-2 cells; read-out: CC50 (concentration to kill 50% of the cells)
Procedure: as §5

## CCCN(CCC)C(=O)OCOP(=O)(CO[C@H](C)Cn1cnc2c(N)ncnc21)OCOC(=O)N(CCC)CCC [Bis-di-n-proNCOM PMPA]
[1]
  Biological t½ (min) (Dog) Intestine: Stable (If the observed rate constant for degradation was less than 0.01 min^−1, then t½ was expressed as stable)
[2]
  Biological t½ (min) (Dog) Plasma: Stable (If the observed rate constant for degradation was less than 0.01 min^−1, then t½ was expressed as stable)
[3]
  Biological t½ (min) (Dog) Liver: 76 min

## CCOC(=O)OCOP(=O)(CO[C@H](C)Cn1cnc2c(N)ncnc21)OCOC(=O)OCC [Bis-EtCOM PMPA, Bis-ethyl Oxymethyl Carbonate of PMPA]
[4]
  Log PC pH 7.4: 0.6
[1]
  Biological t½ (min) (Dog) Intestine: 23.3 min
[5]
  Biological t½ (min) (Human) Intestine: (<5) min
[2]
  Biological t½ (min) (Dog) Plasma: 16.6 min
[3]
  Biological t½ (min) (Dog) Liver: <5 min
[6]
  % of PMPA IV (1 mg/kg) AUC: PMPA: 29.3 ± 3.4%
  % of PMPA IV (1 mg/kg) AUC: Prodrug: 0%
  % of PMPA IV (1 mg/kg) AUC: Monoester: −2%
  % of PMPA IV (1 mg/kg) AUC: other: 0%

## C[C@H](Cn1cnc2c(N)ncnc21)OCP(=O)(O)O [PMPA, 9-[(R)-2-(phosphonomethoxy)propyl]adenine, reference compound]
HIV-1 (IIIB); Human immunodeficiency virus 1, MT2, HIV-1 (IIIB)
  IC50: 0.5 µM
HIV-1 (IIIB); HIV-1
  SI, Selectivity Index (CC50/IC50): 500
[7]
  CC50: 250 µM

## CCOC(=O)OC(C)OP(=O)(CO[C@H](C)Cn1cnc2c(N)ncnc21)OC(C)OC(=O)OCC (stereo partly drawn) [Bis-EtCOE PMPA]
[1]
  Biological t½ (min) (Dog) Intestine: 62.4 min
[2]
  Biological t½ (min) (Dog) Plasma: 42.6 min
[3]
  Biological t½ (min) (Dog) Liver: <5 min

## C[C@H](Cn1cnc2c(N)ncnc21)OCP(=O)(OCOC(=O)NC(C)(C)C)OCOC(=O)NC(C)(C)C [Bis-tBuNCOM PMPA]
[1]
  Biological t½ (min) (Dog) Intestine: 107.5 min
[2]
  Biological t½ (min) (Dog) Plasma: 99.5 min
[3]
  Biological t½ (min) (Dog) Liver: 166.5 min
[6]
  % of PMPA IV (1 mg/kg) AUC: PMPA: 8.86 ± 2.38%
  % of PMPA IV (1 mg/kg) AUC: Prodrug: 9.97%

## CC(C)COC(=O)OCOP(=O)(CO[C@H](C)Cn1cnc2c(N)ncnc21)OCOC(=O)OCC(C)C [Bis-IBu COM PMPA]
[4]
  Log PC pH 7.4: 2.0
[1]
  Biological t½ (min) (Dog) Intestine: 15 min
[5]
  Biological t½ (min) (Human) Intestine: (<5) min
[2]
  Biological t½ (min) (Dog) Plasma: <5 min
[3]
  Biological t½ (min) (Dog) Liver: <5 min
[6]
  % of PMPA IV (1 mg/kg) AUC: PMPA: 24.5 ± 8.82%

## CC(C)OC(=O)OCOP(=O)(CO[C@H](C)Cn1cnc2c(N)ncnc21)OCOC(=O)OC(C)C [Bis-isopropylCOM PMPA, Bis Isopropyl Oxymethyl Carbonate of PMPA]
[4]
  Log PC pH 7.4: 1.25
[1]
  Biological t½ (min) (Dog) Intestine: 52.6 min
[5]
  Biological t½ (min) (Human) Intestine: (<5) min
[2]
  Biological t½ (min) (Dog) Plasma: 20.5 min
[3]
  Biological t½ (min) (Dog) Liver: <5 min
[6]
  % of PMPA IV (1 mg/kg) AUC: PMPA: 35.8 ± 14.7%
  % of PMPA IV (1 mg/kg) AUC: Prodrug: 0%
  % of PMPA IV (1 mg/kg) AUC: Monoester: 3.1%
  % of PMPA IV (1 mg/kg) AUC: other: 0%

## CCCCOC(=O)OCOP(=O)(CO[C@H](C)Cn1cnc2c(N)ncnc21)OCOC(=O)OCCCC [Bis-nBuCOM PMPA, Bis-n-butyl Oxymethyl Carbonate of PMPA]
[4]
  Log PC pH 7.4: 2.7
[1]
  Biological t½ (min) (Dog) Intestine: <5 min
[5]
  Biological t½ (min) (Human) Intestine: (<5) min
[2]
  Biological t½ (min) (Dog) Plasma: <5 min
[3]
  Biological t½ (min) (Dog) Liver: <5 min
[6]
  % of PMPA IV (1 mg/kg) AUC: PMPA: 17.3 ± 2.57%

## C[C@H](Cn1cnc2c(N)ncnc21)OCP(=O)(OCOC(=O)OC(C)(C)C)OCOC(=O)OC(C)(C)C [Bis-t-Bu COM PMPA]
[4]
  Log PC pH 7.4: 1.93
[1]
  Biological t½ (min) (Dog) Intestine: 26.6 min
[5]
  Biological t½ (min) (Human) Intestine: (<5) min
[2]
  Biological t½ (min) (Dog) Plasma: 21.2 min
[3]
  Biological t½ (min) (Dog) Liver: 14.9 min
[6]
  % of PMPA IV (1 mg/kg) AUC: PMPA: 36.2 ± 6.76%
[6]; urine 0-48 hours
  Urinary Recovery (% as PMPA): 34.9%
HIV-1 (IIIB); HIV-1 (IIIB)
  IC50: 0.2 µM
HIV-1 (IIIB); HIV-1 (IIIB), relative to PMPA
  increased potency compared to PMPA: 2.5 fold
MT-2 cells
  CC50: 10 µM

Source: patent USRE38333E1, “Antiviral phosphonomethoxy nucleotide analogs having increased oral bioavailability” (Gilead Sciences, Inc., priority 1996, dated 2003)
